This test has as its system HT-22. The test is described as follows: Neuroprotective activity against glutamate induced cell death in mouse HT22 cells assessed as increase in cell viability at 1 to 5 uM after 24 hrs by MTT assay. Type of test: functional, cell-based. In general terms: Tetrazolium assays rely on reduction of a dye to a coloured formazan, in cell work by metabolically active cells.

SMILES strings stand for the structures. Calls of active or inactive are those of the source. No cut-off for these calls is given here.

In the case of `CC(=O)N[C@@H](CS)C(=O)O`, the result was Active.

Source of the values: ChEMBL document CHEMBL4184122, “Chebulinic acid attenuates glutamate-induced HT22 cell death by inhibiting oxidative stress, calcium influx and MAPKs phosphorylation” (2018).
